The target of one assay is CDK4/Cyclin D1 (Homo sapiens (Human), UniProt P11802). The assay is described as follows: CDK4/CyclinD1 enzymatic activity assay (TR-FRET). The class given is biochemical. Conditions: CDK4/CyclinD1 1 nM, ATP 2 mM, read-out: CDK4_D1 IC50. The protocol: CDK4/CyclinD1 Enzymatic Activity Assay
The inhibitory activity of compounds was evaluated in vitro using TR-FRET assay with white 384-well low volume microplate (Greiner Bio-One). CDK4/Cyclin D1 catalyzed phosphorylation of peptide in the presence and absence of compounds was measured. IC50 determination. Recombinant protein complex CDK4/Cyclin D1, expressed from insect cell, was purchased from ProQinase. Testing compounds were dissolved in DMSO at 0.1 mM and tested in 9-dose IC50 mode. The reaction mixture was prepared by mixing CDK4/CyclinD1 (1 nM final), ULight-4E-BP1 (100 nM final, Perkinelmer, TRF0128-D), and ATP (2 mM final) in assay buffer (20 mM of HEPES pH 7.4, 1 mM of EGTA, 0.05% BSA, 0.005% Tween 20, and 1 mM TCEP). The compound of interest in DMSO was added to each well in 3-fold serial dilution by dispenser (TECAN D300E). After 20 minutes preincubation at room temperature, MgCl2 (10 mM final) was added to initiate the reaction. Following a 60 minutes incubation at 37° C., the reaction was stopped by addition of 2 μL of quenching buffer consisting of Lance detection buffer (Perkinelmer CR97-100C), 2 nM LANCE Ultra Europium-anti-P-4E-BP1 (Perkinelmer, TRF0216-D), 10 mM EDTA, and incubate at room temperature for additional 60 minutes in dark. The reaction signal was measured by Envision multimode plate reader (PerkinElmer, 2102-0010). IC50 values were determined by fitting the data to the standard 4 parameters with Hill Slope using GraphPad Prism software.
(In general: In TR-FRET formats the signal depends on donor and acceptor labels being close together.)

Assay [1] concerns MCF7 adenocarcinoma cell line. Put plainly: Cell proliferation studies in MCF7 cells (ATP-Lite). The class given is cell-based. The note with it: 10 days incubation, cell viability by ATP-Lite luminescence, read-out: PROLIFERATION_CTG_MCF7 IC50. How it is done:
Cell Proliferation Studies in MCF7 Cells
Cell proliferation studies were conducted in MCF7 adenocarcinoma cell line. Cells were maintained in DMEM (Corning, Catalog #: 10-013-CV) supplemented with 10% v/v FBS (Gibco, Catalog #: 26140-079), 1% v/v Penicillin Streptomycin (Gibco, Catalog #15140-122) Cells were seeded in 384-well plates at a density of 100 or 200 cells/well. Compounds dissolved in DMSO were plated in quadruplicate using a digital dispenser (D300E, Tecan) and tested on a 9-point 3-fold serial dilution. Cells were incubated for 10 days in a 37° C. active humidified incubator at 5% CO2. A media exchange and second compound addition were performed on day 5. Cell viability was measured using the ATP-Lite 1-Step Luminescence reagent (Perkin Elmer, Catalog #: 6016731) as per manufacturer's instructions. Luminescence signal was measured with a multimode plate reader (Envision 2105, Perkin Elmer). Raw data files were imported to Dotmatics Screening Ultra for IC50 analysis. Luminescence values were normalized to both background and DMSO controls to obtain a percentage of viable cells relative to DMSO vehicle control.

Read-outs that look alike come from different tables or passages of the source.

CDK4/Cyclin D1, sequence (P11802 whole entry): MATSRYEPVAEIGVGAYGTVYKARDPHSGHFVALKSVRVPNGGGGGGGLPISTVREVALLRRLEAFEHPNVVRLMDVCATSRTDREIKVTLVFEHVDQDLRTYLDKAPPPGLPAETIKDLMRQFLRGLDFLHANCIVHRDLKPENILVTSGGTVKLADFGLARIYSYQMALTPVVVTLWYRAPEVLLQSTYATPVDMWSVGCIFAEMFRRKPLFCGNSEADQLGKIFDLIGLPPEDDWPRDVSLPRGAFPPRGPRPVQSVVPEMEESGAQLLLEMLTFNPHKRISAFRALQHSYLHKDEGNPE
CDK4/Cyclin D1, sequence (P24385 whole entry partner): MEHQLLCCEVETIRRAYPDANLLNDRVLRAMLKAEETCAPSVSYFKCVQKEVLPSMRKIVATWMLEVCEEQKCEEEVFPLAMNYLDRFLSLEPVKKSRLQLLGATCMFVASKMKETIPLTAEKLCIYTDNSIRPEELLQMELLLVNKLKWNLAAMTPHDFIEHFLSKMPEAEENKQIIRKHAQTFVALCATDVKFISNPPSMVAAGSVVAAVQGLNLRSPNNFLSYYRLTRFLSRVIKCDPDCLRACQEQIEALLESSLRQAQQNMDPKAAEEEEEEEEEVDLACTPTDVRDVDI

`CCN1C(=O)c2c(sc(-c3nc(Nc4ccc(C5CCN(C)CC5)cn4)ncc3Cl)c2C)C12CC2` [Example 11, 2′-(5-Chloro-2-((5-(1-methyl-piperidin-4-yl)pyridin-2-yl)amino)pyrimidin-4-yl)-5′-ethyl-3′-methylspiro[cyclopropane-1,6′-thieno[2,3-c]pyrrol]-4′(5′H)-one]: the IC50 at CDK4/Cyclin D1 was at most 20 nM; in assay [1] (Homo sapiens, 240 h) it was 20 to 200 nM.
As to `CCN1C(=O)c2cc(-c3nc(Nc4ccc(N5C[C@H]6CN(C)C[C@H]6C5)cn4)ncc3C)sc2C12CC2` [Example 17], the results for the IC50 (at CDK4/Cyclin D1; in assay [1]) were at most 20 nM and 20 to 200 nM, respectively.
In the case of `CCN1C(=O)c2cc(-c3nc(Nc4ccc(C5CCN(C)CC5)cn4)ncc3C)sc2C12CC2` [Example 19, 5′-Ethyl-2′-[5-methyl-2-[[5-(1-methylpiperidin-4-yl)pyridin-2-yl]amino]pyrimidin-4-yl]spiro[cyclopropane-1,6′-thieno[2,3-c]pyrrole]-4′-one], the IC50 on CDK4/Cyclin D1 is at most 20 nM; in assay [1] (Homo sapiens, 240 h), 20 to 200 nM.
As for `CCN1CCC(c2ccc(Nc3ncc(F)c(-c4cc5c(s4)C4(CC4)CN(C)C5=O)n3)nc2)C1` (stereo not drawn) [Example 31, 2′-(2-((5-(1-Ethylpyrrolidin-3-yl)pyridin-2-yl)amino)-5-fluoropyrimidin-4-yl)-5′-methyl-5′,6′-dihydro-4′H-spiro[cyclo-propane-1,7′-thieno[3,2-c]pyridin]-4′-one], the IC50 at CDK4/Cyclin D1 was at most 20 nM; in assay [1] (Homo sapiens, 240 h) it was 200 to 2000 nM.
`Cc1c(-c2nc(Nc3ccc(N4CC5CC(C4)N5C)cn3)ncc2F)sc2c1C(=O)N(C)CC21CC1` [Example 33, 2′-(5-Fluoro-2-((5-(6-methyl-3,6-diazabicyclo[3.1.1]heptan-3-yl)pyridin-2-yl)amino)pyrimidin-4-yl)-3′,5′-dimethyl-5′,6′-dihydro-4′H-spiro[cyclopropane-1,7′-thieno[3,2-c]pyridin]-4′-one]: the IC50 on CDK4/Cyclin D1 is at most 20 nM; in assay [1] (Homo sapiens, 240 h) it was 20 to 200 nM.
As to `CCN1CCN(Cc2ccc(Nc3ncc(F)c(-c4sc5c(c4C)C(=O)N(C)CC54CC4)n3)nc2)CC1` [Example 38, 2′-(2-((5-((4-Ethylpiperazin-1-yl)methyl)pyridin-2-yl)amino)-5-fluoropyrimidin-4-yl)-3′,5′-dimethyl-5′,6′-dihydro-4′H-spiro[cyclopropane-1,7′-thieno[3,2-c]pyridin]-4′-one], the IC50 is at most 20 nM at CDK4/Cyclin D1 and 200 to 2000 nM in assay [1] (Homo sapiens, 240 h).
In the case of `CN1CC2(CCC2)c2sc(-c3nc(Nc4ccc(C5CCN(CC(F)F)CC5)cn4)ncc3F)cc2C1=O` [Example 49, 2′-(2-((5-(1-(2,2-Difluoroethyl)piperidin-4-yl)pyridin-2-yl)amino)-5-fluoropyrimidin-4-yl)-5′-methyl-5′,6′-dihydro-4′H-spiro[cyclobutane-1,7′-thieno[3,2-c]pyridin]-4′-one], the IC50 on CDK4/Cyclin D1 was at most 20 nM.
With `CCN1CCN(Cc2ccc(Nc3ncc(F)c(-c4sc5c(c4C)C(=O)N(C)CC54CCC4)n3)nc2)CC1` [Example 56, 2′-(2-((5-((4-Ethylpiperazin-1-yl)methyl)pyridin-2-yl)amino)-5-fluoropyrimidin-4-yl)-3′,5′-dimethyl-5′,6′-dihydro-4′H-spiro[cyclobutane-1,7′-thieno[3,2-c]pyridin]-4′-one], on CDK4/Cyclin D1, the IC50 was at most 20 nM.
Still for that read-out and setting: with `CN1CCN(c2ccc(Nc3ncc(F)c(-c4cc5c(s4)C4(CCCC4)CN(C)C5=O)n3)nc2)C(C(F)(F)F)C1` (stereo not drawn) [Example 65, 2-[5-Fluoro-2-[[5-[4-methyl-2-(trifluoromethyl)piperazin-1-yl]pyridin-2-yl]amino]pyrimidin-4-yl]-5-methylspiro[6H-thieno[3,2-c]pyridine-7,1′-cyclopentane]-4-one] the figure was at most 20 nM; with `CCN1CCN(Cc2ccc(Nc3ncc(F)c(-c4ccc5c(c4)C4(CCCC4)CN(C)C5=O)n3)nc2)CC1` [Example 68, 6′-(2-((5-((4-Ethylpiperazin-1-yl)methyl)pyridin-2-yl)amino)-5-fluoropyrimidin-4-yl)-2′-methyl-2′,3′-dihydro-1′H-spiro [cyclo-pentane-1,4′-isoquinolin]-1′-one], at most 20 nM; with `CCN1CC2(C1)CN(c1ccc(Nc3ncc(F)c(-c4ccc5c(c4)C4(CCC4)CN(C)C5=O)n3)nc1)C2` [Example 69, 6′-(2-((5-(6-Ethyl-2,6-diazaspiro[3.3]heptan-2-yl)pyridin-2-yl)amino)-5-fluoropyrimidin-4-yl)-2′-methyl-2′,3′-dihydro-1′H-spiro[cyclobutane-1,4′-isoquinolin]-1′-one], 20 to 200 nM.
In the case of `C/C=C/CN1CCC(c2ccc(Nc3ncc(F)c(-c4sc5c(c4C)C(=O)N(C)C54CC4)n3)nc2)C1` (stereo not drawn) [Example 72, (E)-2′-(2-((5-(1-(But-2-en-1-yl)pyrrolidin-3-yl)pyridin-2-yl)amino)-5-fluoropyrimidin-4-yl)-3′,5′-dimethylspiro[cyclopropane-1,6′-thieno[2,3-c]pyrrol]-4′(5′H)-one], on CDK4/Cyclin D1, the IC50 was at most 20 nM.
As to `CCN1CC2(C1)CN(c1ccc(Nc3ncc(F)c(-c4cc5c(s4)C4(CCCCC4)CN(CC)C5=O)n3)nc1)C2` [Example 75, 5′-Ethyl-2′-(2-((5-(6-ethyl-2,6-diazaspiro[3.3]heptan-2-yl)pyridin-2-yl)amino)-5-fluoropyrimidin-4-yl)-5′,6′-dihydro-4′H-spiro[cyclohexane-1,7′-thieno[3,2-c]pyridin]-4′-one], the IC50 at CDK4/Cyclin D1 is 20 to 200 nM.
With `CCN1CC2(C1)CN(c1ccc(Nc3ncc(F)c(-c4cc5c(s4)C4(CN(C)C5=O)CC5(CC5)C4)n3)nc1)C2` [Example 76, 2″-(2-((5-(6-Ethyl-2,6-diazaspiro[3.3]heptan-2-yl)pyridin-2-yl)amino)-5-fluoropyrimidin-4-yl)-5″-methyl-5″,6″-dihydro-4″H-dispiro[cyclopropane-1,1′-cyclobutane-3′,7″-thieno[3,2-c]pyridin]-4″-one], the IC50 at CDK4/Cyclin D1 was at most 20 nM.
As to `CN1CCC(c2ccc(Nc3ncc(F)c(-c4ccc5c(c4)C4(CCCC4)N(C)C5=O)n3)nc2)CC1` [Example 79, 6′-(5-Fluoro-2-((5-(1-methylpiperidin-4-yl)pyridin-2-yl)amino)pyrimidin-4-yl)-2′-methylspiro[cyclopentane-1,1′-isoindolin]-3′-one], the IC50 on CDK4/Cyclin D1 was 20 to 200 nM.
The same measure, in the same setting: the value for `CN1CCC(c2ccc(Nc3ncc(F)c(-c4cc5c(s4)C4(CN(C)C5=O)CC(F)(F)C4)n3)nc2)CC1` [Example 84, 3,3-Difluoro-2′-(5-fluoro-2-((5-(1-methylpiperidin-4-yl)pyridin-2-yl)amino)pyrimidin-4-yl)-5′-methyl-5′,6′-dihydro-4′H-spiro[cyclobutane-1,7′-thieno[3,2-c]pyridin]-4′-one] was 20 to 200 nM; that for `CCN1CC2(C1)CN(c1ccc(Nc3ncc(F)c(-c4cc5c(s4)C4(CN(C)C5=O)CC(F)(F)C4)n3)nc1)C2` [Example 85, 2′-(2-((5-(6-Ethyl-2,6-diazaspiro[3.3]heptan-2-yl)pyridin-2-yl)amino)-5-fluoropyrimidin-4-yl)-3,3-difluoro-5′-methyl-5′,6′-dihydro-4′H-spiro[cyclobutane-1,7′-thieno[3,2-c]pyridin]-4′-one] was 20 to 200 nM.
As to `CN1CCC(c2ccc(Nc3ncc(F)c(-c4cc5c(s4)C4(CCCC4)CN(C)C5=O)n3)nn2)CC1` [Example 87, 2-[5-Fluoro-2-[[6-(1-methylpiperidin-4-yl)pyridazin-3-yl]amino]pyrimidin-4-yl]-5-methylspiro[6H-thieno[3,2-c]pyridine-7,1′-cyclopentane]-4-one], the IC50 on CDK4/Cyclin D1 was in the range of 20 to 200 nM.

(Values after patent US20250163074A1, “CDK Inhibitors And Their Use As Pharmaceuticals” (Prelude Therapeutics Incorporated, priority 2020, published 2025).)
